In patent US6552027B2, “Quinazolines for treating brain tumor” (Parker Hughes Institute, priority 1998, dated 2003):
Where a name gives a salt, the structure may show the parent alone. Read-outs that look alike come from different tables or passages of the source.

Key:
U373 cells = assay: Adhesion of glioblastoma cells to ECM protein-coated plates; format: cell-based, human; conditions: for IC50: Homo sapiens, U373 MG
Description: In vitro adhesion assays were performed to (a) study the baseline adhesive properties of various glioblastoma cell lines and (b) evaluate the effects of quinazoline derivatives on the adhesive properties of glioblastoma cells. The plates for the adhesion assays were precoated with the extracellular matrix proteins laminin, fibronectin or type IV collagen (each at a final concentration of 1 μg/ml in PBS) overnight at 4° C. and dried. On the day of the experiment, the wells were rehydrated and blocked with 10% bovine serum albumin in PBS for 1 hour at room temperature and used for the adhesion assays, as described below.
DMSO (0.1%) was included as a vehicle control. After treatment, cells were detached from the flasks with 0.05% trypsin (Life Technologies) resuspended in DMEM, incubated at 37° C. for 2 hours to allow them to recover from the trypsinization stress and examined for their ability to adhere to plates precoated with ECM proteins.
In adhesion assays, cells were centrifuged, washed twice with serum-free DMEM, counted and resuspended in serum-free DMEM to a final concentration of 2.5×10^5 cells/ml. One hundred μl of the cell suspension containing 2.5×10^4 cells were added to each well and cells were allow d to adhere for 1 hour at 37° C. in a humidified 5% CO2 atmosphere. The adherent fraction was quantitated using MTT (3-[4,5-dimethylthiazol-2-yl]-2,5-diphenyltetrazolium bromide) assays. […] The adherent fractions of cells treated with quinazoline derivatives were compared to those of DMSO-treated control cells and the percent inhibition of adhesion was determined sing the formula: [formula]
Each treatment condition was evaluate d in duplicate in 3 independent experiments.

U373 glioblastoma cells = assay: Glioblastoma cell invasion through Matrigel matrix (Boyden chambers); format: cell-based; conditions: Homo sapiens, U373 MG
Description: The in vitro invasiveness of glioblastoma cells was assayed using a previously published method which employs Matrigel-coated Costar 24-well transwell cell culture chambers (“Boyden chambers”) with 8.0-μm-pore polycarbonate filter inserts (Albini, A., Iwamoto, Y., Kleinman, H. K., Martin, G. R., Aaronson, S. A., Kozlowski, J. M., and McEwan, R. N., 1987, Cancer Res., 47:3239-3245). The chamber filters were coated with 50 μg/ml of Matrigel matrix, incubated overnight at room temperature under a laminar flow hood and stored at 4° C. Matrigel matrix is made up of several components of the extralcellular matrix (ECM), including collagens, laminin and proteo-glycans
On the day of the experiment, the coated inserts were rehydrated with 0.5 ml serum-free DMEM containing 0.1% bovine serum albumin for 1-2 hours. To study the effects of quinazoline derivatives on invasiveness of glioblastoma cells, exponentially growing cells were incubated overnight with WHI-P97, WHI-P131 and WHI-P154 at various concentrations ranging from 1 μM to 50 μM. The cells were trypsinized, washed twice with serum-free DMEM containing BSA, counted and resuspended at 1×10^5 cells/ml. 0.5 ml cell suspension containing 5×10^4 cells in a serum-free DMEM containing quinazoline compounds or vehicle was added to the Matrigel-coated and rehydrated filter inserts. Next, 750 μl of NIH fibroblast conditioned medium was placed as a chemoattractant in 24-well plates and the inserts were placed in wells and incubated at 37° C. for 48 hours. […] The invasive cells that migrated to the lower side of the filter were fixed, stained with Hema-3 solutions and counted under microscope. Five to 10 random fields per filter were counted to determine the mean (±SE) values for the invasive fraction. The invasive fractions of cells treated with quinazoline derivatives were compared to those of DMSO treated control cells and he percent inhibition of invasiveness was determined using the formula: [formula]
Each treatment condition was evaluated in duplicate in 3 independent experiments. IC50 values were calculated by non-linear regression analysis using Graphpad Prisin Software Version 2.0 (Graphpad Software Inc., San Diego, Calif.).

[1] = test system: U373 human glioblastoma cell line; assay: MTT cytotoxicity assay, U373 glioblastoma cells; conditions: for IC50: Homo sapiens, U373 MG
Description: (§1) The cytotoxicity assay of various compounds against human brain tumor cell lines was performed using the MTT (3-[4,5-dimethylthiazol-2-yl]-2,5-diphenyl tetrazolium bromide) assay (Boehringer Mannheim Corp., Indianapolis, Ind.). Briefly, exponentially growing brain tumor cells were seeded into a 96-well plate at a density of 2.5×10^4 cells/well and incubated for 36 hours at 37° C. prior to drug exposure. […] Triplicate wells were used for each treatment.
Human glioblastoma cell line U373 was obtained from American. Type Culture Collection (Rockville, Md.) and maintained as a continuous cell line in Dulbecco's modified Eagles's medium supplemented with 10% fetal bovine serum and antibiotics. The B-lineage acute lymphoblastic leukemia cell line Nalm-6 was used as a negative control.
(§2) The cells were incubated with the various compounds for 24-36 hours at 37° C. in a humidified 5% CO2 atmosphere. To each well, 10 μl of MTT (0.5 mg/ml final concentration) was added and the plates were incubated at 37° C. for 4 hours to allow MTT to form formazan crystals by reacting with metabolically active cells. The formazan crystals were solubilized overnight at 37° C. in a solution containing 10% SDS in 0.01 M HCl. The absorbence of each well was measured in a microplate reader (Labsystems) at 540 nm and a reference wavelength of 690 nm. To translate the OD540 values into the number of live cells in each well, the OD540 values were compared to those on standard OD540—versus—cell number curves generated for each cell line. The percent survival was calculated using the formula: [formula]
(§3) The IC50 values were calculated by non linear regression analysis.

[2] = test system: U87 human glioblastoma cell line; assay: MTT cytotoxicity assay, U87 glioblastoma cells; format: cell-based; conditions: Homo sapiens, unconjugated compound, read-out: IC50 value
Description: as §1, §2, §3
Apoptosis was also evaluated using the nick-end-labeling assay, as described for Example 3.

NALM-6 leukemia cells = assay: MTT cytotoxicity assay, EGF-R negative leukemia cells (negative control line); format: cell-based; conditions: NALM-6; FIG. 5B
Description: Triplicate wells were used for each treatment.
Human glioblastoma cell line U373 was obtained from American.
The percent survival was calculated using the formula: [formula]

[3] = test system: U373 human glioblastoma cells; assay: SCID mouse xenograft model of human glioblastoma; conditions: 1 mg/kg/day×10 days i.p.
Description: The right hind legs of the CB. 17 SCID mice were inoculated subcutaneously (s.c.) with 0.5×10^6 U373 human glioblastoma cells in 0.2 mL PBS. […] Daily treatments with PBS, unconjugated EGF (1 mg/kg/dose), and unconjugated WHI-P154 (1 mg/kg/dose) were used as controls. Mice were monitored daily for health status and tumor growth, and were sacrificed if they became moribund developed tumors which impeded their ability to attain food or water, at the end of the 3-month observation period. Tumors were measured using Vernier calipers twice weekly, and the tumor volumes were calculated according to the following formula (Friedman, S. H., mDolan, M. E., Pegg, A. E., Marcelli, S., Keir, S., Catino, J. J., Binger, D. D., Schold, S. C., Jr., 1995, Cancer Res., 55:2853-2857): [formula]
For histopathologic studies, tissues were fixed in 10% neutral buffered formalin, dehydrated, and embedded in paraffin by routine methods. Glass slides with affixed 6 micron tissue sections were prepared and stained with hematoxylin/eosin. Primary endpoints of interest were tumor growth and tumor-free survival outcome. Estimation of life table outcome and comparisons of outcome between groups were done, as previously reported (Waurzyniak, et al., 1997, Clinical Cancer Research 3:881-890; Anderson, et al., 1995, Cancer Res. 55:1321-1327; Uckun, et al., 1997, J. Clin. Oncol. 15:2214-2221).

[4] = one bound for all three coatings, read-out: all IC50 values, adhesion to laminin-, fibronectin- and collagen-coated plates
[5] = U373, 3 independent experiments, 48 hours, read-out: mean IC50 value, invasion through Matrigel matrix
[6] = U373, 3 independent experiments, read-out: range of IC50 values, invasion through Matrigel matrix
[7] = read-out: IC50 value derived from the average values of three experiments, invasion

Q: Which melting point does the source give for `COc1cc2ncnc(Nc3cc4ccccc4cc3O)c2cc1OC` (as salt: salt) [WHI-P292, 4-(2′-Hydroxy-naphthyl-3′)-amino-6,7-dimethoxyquinazoline] here?
A: 277 to 279 °C

Q: For `COc1cc2ncnc(Nc3cccc(Br)c3)c2cc1OC` [WHI-P79, 4-(3′-Bromophenyl)-amino-6,7-dimethoxyquinazoline], which IC50 (U373 cells; [4]) is on record?
A: > 50 µM

Q: For `COc1cc2ncnc(Nc3cc(Br)c(O)c(Br)c3)c2cc1OC` [WHI-P97, 4-(3′, 5′-Dibromo-4′-hydroxylphenyl)-amino-6,7-dimethoxyquinazoline], which IC50 (U373 glioblastoma cells; [5]) is on record?
A: 10.6 ± 1.8 µM

Q: What about the IC50 (U373 glioblastoma cells; [6]) of the same compound?
A: 9.57 to 11.6 µM

Q: What about the IC50 (U373 glioblastoma cells; [7]) of the same compound?
A: 9.58 µM

Q: Which melting point does the source give for `COc1cc2ncnc(Nc3ccc(C)c(Br)c3)c2cc1OC` [WHI-P111, 4-(3′-Bromo-4′-methylphenyl)-amino-6,7-dimethoxyquinazoline] here?
A: 225 to 228 °C

Q: Which results are given for `COc1cc2ncnc(Nc3ccc(O)cc3)c2cc1OC` [WHI-P131, 4-(4′-Hydroxylphenyl)-amino-6,7-dimethoxyquinazoline]?
A: IC50 (U373 cells; [4]): > 50 µM; IC50 (U373 glioblastoma cells; [5]): 7.07 ± 1.8 µM; IC50 (U373 glioblastoma cells; [6]): 5.08 to 8.59 µM; IC50 (U373 glioblastoma cells; [7]): 7.95 µM

Q: Which results are given for `COc1cc2ncnc(Nc3ccc(O)c(Br)c3)c2cc1OC` [WHI-P154, 4-(3′-Bromo-4′-hydroxylphenyl)-amino-6,7-dimethoxyquinazoline]?
A: IC50 ([1]; read-out: composite survival curve IC50 value): 158 µM; IC50 ([1]; read-out: mean (±SE) IC50 value): 167 ± 26.9 µM; IC50 [2]: 179 ± 18.5 µM; cytotoxicity against EGF-R negative leukemia cells (in words) (NALM-6 leukemia cells): marked cytotoxicity; time at which tumors reached a size of 50 mm^3 [3]: 36.0 ± 5.1 days; median tumor-free survival ([3]; N=5): 19 days; IC50 (U373 cells; 16 hours treatment, N=3, read-out: mean IC50 value, adhesion to collagen-coated plates): 42.7 ± 2.5 µM; IC50 (U373 cells; 16 hours treatment, N=3, read-out: mean IC50 value, adhesion to fibronectin-coated plates): 29.8 ± 3.1 µM; IC50 (U373 cells; 16 hours treatment, N=3, read-out: mean IC50 value, adhesion to laminin-coated plates): 36.1 ± 3.5 µM; IC50 (U373 glioblastoma cells; [5]): 4.46 ± 0.8 µM; IC50 (U373 glioblastoma cells; [6]): 3.53 to 5.01 µM; IC50 (U373 glioblastoma cells; [7]): 5.2 µM

Q: Which IC50 [1] does the source give for `COc1cc2ncnc(Nc3cc4ccccc4cc3O)c2cc1OC` [WHI-P292, 4-(2′-Hydroxy-naphthyl-3′)-amino-6,7-dimethoxyquinazoline] here?
A: 38.2 µM

Q: For `O=c1c(-c2ccc(O)cc2)coc2cc(O)cc(O)c12` [genistein, reference compound], which IC50 ([1]; read-out: IC50 value) is on record?
A: > 250 µM

Q: What about the “cytotoxicity against brain tumor cells (in words)” value ([1]; U373, MTT, 0.1 to 250 μM, FIGS. 1A and 1B) of the same compound?
A: also ineffective

Q: What about the “inhibition of glioblastoma cell adhesion (in words)” value (U373 cells; ECM-coated plates) of the same compound?
A: did not affect glioblastoma cell adhesion and motility
